Measurements: ChEMBL document CHEMBL1146710, “Discovery of a novel series of DHODH inhibitors by a docking procedure and QSAR refinement” (Bioorg Med Chem Lett, 2004)

Target: Dihydroorotate dehydrogenase (quinone), mitochondrial (Homo sapiens, UniProt Q02127)
Sequence (Q02127 whole entry): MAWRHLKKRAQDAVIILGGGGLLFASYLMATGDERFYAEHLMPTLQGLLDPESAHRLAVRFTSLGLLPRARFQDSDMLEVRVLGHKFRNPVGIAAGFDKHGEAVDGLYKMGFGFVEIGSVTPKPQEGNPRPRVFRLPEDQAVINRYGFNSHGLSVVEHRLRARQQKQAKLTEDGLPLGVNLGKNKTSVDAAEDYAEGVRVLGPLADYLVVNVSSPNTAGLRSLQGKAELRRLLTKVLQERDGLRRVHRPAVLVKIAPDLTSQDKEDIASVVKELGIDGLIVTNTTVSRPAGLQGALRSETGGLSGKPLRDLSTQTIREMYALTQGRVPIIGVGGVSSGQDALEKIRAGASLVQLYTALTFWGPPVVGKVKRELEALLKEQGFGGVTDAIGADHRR
Description: In vitro inhibitory activity against human dihydroorotate dehydrogenase (DHODH)

SMILES	IC50 [nM]
CN(C)c1ccc(-c2ccc(NC(=O)C3=C(C(=O)O)CCC3)cc2Cl)cc1	50
O=C(O)C1=C(C(=O)Nc2ccc(-c3ccc(OC(F)(F)F)cc3)cc2F)CCC1	5700
N#Cc1cc(-c2cccc(OC(F)(F)F)c2)ccc1NC(=O)C1=C(C(=O)O)CCC1	370
COc1cccc(-c2ccc(NC(=O)C3=C(C(=O)O)CCC3)c(OC)c2)c1	170
O=C(O)C1=C(C(=O)Nc2ccc(-c3cccc(OC(F)(F)F)c3)cc2F)CCC1	280
O=C(O)C1=C(C(=O)Nc2c(F)cc(-c3ccccc3F)cc2F)CCC1	45
CN(C)c1ccc(-c2cc(F)c(NC(=O)C3=C(C(=O)O)CCC3)c(F)c2)cc1	610
O=C(O)C1=C(C(=O)Nc2c(F)c(F)c(-c3cccc(OC(F)(F)F)c3)c(F)c2F)CCC1	7
O=C(O)C1=C(C(=O)Nc2ccc(-c3ccc(Br)cc3)cc2Cl)CCC1	2900
O=C(O)C1=C(C(=O)Nc2ccc(-c3cccc(OC(F)(F)F)c3)cc2[N+](=O)[O-])CCC1	390
O=C(O)C1=C(C(=O)Nc2ccc(-c3cccc(OC(F)(F)F)c3)cc2Cl)CCC1	290
Cc1cc(-c2cccc(OC(F)(F)F)c2)ccc1NC(=O)C1=C(C(=O)O)CCC1	150
COc1cc(-c2ccccc2Cl)ccc1NC(=O)C1=C(C(=O)O)CCC1	225
O=C(O)C1=C(C(=O)Nc2ccc(-c3cccc(OC(F)(F)F)c3)cc2C(F)(F)F)CCC1	840
O=C(O)C1=C(C(=O)Nc2c(F)cc(-c3cccc(OC(F)(F)F)c3)cc2F)CCC1	33
CC(C)(C)c1ccc(-c2ccc(NC(=O)C3=C(C(=O)O)CCC3)cc2Cl)cc1	80
COc1ccccc1-c1ccc(NC(=O)C2=C(C(=O)O)CCC2)c(Cl)c1	310
O=C(O)C1=C(C(=O)Nc2c(F)cc(-c3ccccc3Cl)cc2F)CCC1	18
O=C(O)C1=C(C(=O)Nc2ccc(-c3ccc(Br)cc3)cc2F)CCC1	735
O=C(O)C1=C(C(=O)Nc2ccc(-c3cccc(OC(F)(F)F)c3)c(Cl)c2)CCC1	20
COc1ccc(-c2cc(F)c(NC(=O)C3=C(C(=O)O)CCC3)c(F)c2)c(OC)c1	90
O=C(O)C1=C(C(=O)Nc2ccc(-c3cccc(O)c3)cc2F)CCC1	610
COc1ccccc1-c1c(F)c(F)c(NC(=O)C2=C(C(=O)O)CCC2)c(F)c1F	8
COc1ccc(-c2ccc(NC(=O)C3=C(C(=O)O)CCC3)c(F)c2)cc1	1700
O=C(O)C1=C(C(=O)Nc2ccc(-c3ccccc3)cc2)CCC1	410
O=C(O)C1=C(C(=O)Nc2ccc(-c3ccc(Br)cc3)c(Cl)c2)CCC1	70
O=C(O)C1=C(C(=O)Nc2ccc(-c3cccc4ccccc34)cc2C(F)(F)F)CCC1	180
CCOc1cccc(-c2cc(F)c(NC(=O)C3=C(C(=O)O)CCC3)c(F)c2)c1	17
COc1ccc(-c2ccc(NC(=O)C3=C(C(=O)O)CCC3)c(Cl)c2)cc1	8400
